Where “and” joins values, the source holds several entries; their conditions need not be identical. Identical values can stand only once.
Tests used:
[1] = tested on: B16; assay: In vitro cytotoxicity against murine B16 melanoma cells; type: functional, cell-based, Mus musculus
[2] = tested on: Mus musculus; assay: Maximally tolerated dose was measured after ip administration of compound, 24 hr after tumor implantation.; type: functional
[3] = tested on: B16; assay: Percent increase in life span after transplant tumor in B16 melanoma cells; type: functional, Mus musculus
[4] = Tumor growth inhibition activity after subcutaneous transplanted tumor in mammary carcinoma 16/C cells; type: functional, Mus musculus
[5] = Percent increase in life span after transplant tumor in Madison lung carcinoma cells; type: functional, Mus musculus, M109
[6] = tested on: P388; assay: Maximum increase in life span was determined against P388 leukemia at 4-5 doses of compound; type: functional, Mus musculus
[7] = tested on: L1210; assay: Percent increase in life span after transplant tumor in L1210 leukemia; type: functional, Mus musculus
[8] = tested on: Lewis lung carcinoma cell line; assay: Percent increase in life span after transplant tumor in Lewis lung carcinoma cells; type: functional, Mus musculus
[9] = tested on: P388; assay: Percent increase in life span after transplant tumor in p388 leukemia cells; type: functional, Mus musculus
[10] = tested on: ADJ/PC6; assay: Tumor growth inhibition activity after subcutaneous transplanted tumor in ADJ-PC6 plasmacytoma cells; type: functional, Mus musculus
[11] = tested on: M5076; assay: Percent increase in life span after transplant tumor in M5076 reticulum cells; type: functional, Mus musculus
[12] = organism: Mus musculus

| Compound | IC50 ([1]; Mus musculus, B16) | MTD [2] | ILSmax [6] | other results |
| --- | --- | --- | --- | --- |
| CCP(CCP(CC)c1ccccc1)c1ccccc1 (stereo not given) | > 100 µM | >300 µM/kg |  |  |
| c1ccc(P(CCP(c2ccccc2)c2ccccc2)c2ccccc2)cc1 | 50 µM | 60 µM/kg and 50 µM/kg | 80 and 107 | ILS [3]: 38%; TGI [4]: 88%; ILS [5]: 50%; ILS [7]: 56%; ILS [8]: 69%; ILS [9]: 107%; TGI [10]: 94%; IC50 ([1]; b16): 60 µM; ILS [11]: 74% |
| COc1ccc(P(CCP(c2ccc(OC)cc2)c2ccc(OC)cc2)c2ccc(OC)cc2)cc1 | 66 µM | 62 µM/kg |  |  |
| c1ccc(SCCSc2ccccc2)cc1 | > 100 µM | 1000 µM/kg |  |  |
| c1ccc(P(CCCCP(c2ccccc2)c2ccccc2)c2ccccc2)cc1 | > 100 µM | 66 µM/kg | 45 |  |
| CSc1ccccc1P(CCP(c1ccccc1SC)c1ccccc1SC)c1ccccc1SC |  | 110 µM/kg | 51 |  |
| 4,4'-Bis-diphenylphosphanyl-biphenyl; compound with GENERIC INORGANIC NEUTRAL COMPONENT |  |  |  | MTD [12]: 35 µM/kg and 24 µM/kg and 30 µM/kg |
| C(=C\P(c1ccccc1)c1ccccc1)/P(c1ccccc1)c1ccccc1 | 40 µM | 320 µM/kg |  |  |
| c1ccc(P(CCCCCP(c2ccccc2)c2ccccc2)c2ccccc2)cc1 | > 100 µM | 18 µM/kg | 50 |  |
| c1ccc(P(CCCCCCP(c2ccccc2)c2ccccc2)c2ccccc2)cc1 | > 100 µM | 280 µM/kg |  |  |
| c1cc(P(CCP(c2ccncc2)c2ccncc2)c2ccncc2)ccn1 |  | 80 µM/kg | 35 |  |
| Fc1ccccc1P(CCP(c1ccccc1F)c1ccccc1F)c1ccccc1F | > 100 µM | 68 µM/kg | 45 |  |
| CC(CP(c1ccccc1)c1ccccc1)P(c1ccccc1)c1ccccc1 (stereo not given) | 50 µM | 78 µM/kg | 86 |  |
| c1ccc([As](CC[As](c2ccccc2)c2ccccc2)c2ccccc2)cc1 | > 100 µM | 82 µM/kg |  |  |
| c1csc(P(CCP(c2cccs2)c2cccs2)c2cccs2)c1 | > 100 µM | 38 µM/kg | 60 |  |
| CN(C)c1ccc(P(CCP(c2ccc(N(C)C)cc2)c2ccc(N(C)C)cc2)c2ccc(N(C)C)cc2)cc1 |  | >220 µM/kg |  |  |
| Cc1ccc(P(CCP(c2ccc(C)cc2)c2ccc(C)cc2)c2ccc(C)cc2)cc1 | > 100 µM | 26 µM/kg |  |  |
| C1CCC(P(CCP(C2CCCCC2)C2CCCCC2)C2CCCCC2)CC1 | > 100 µM | 76 µM/kg | 68 |  |
| O=[N+]([O-])[O][Ag].O=[N+]([O-])[O][Ag].c1ccc(P(CCP(c2ccccc2)c2ccccc2)c2ccccc2)cc1 |  | 8 µM/kg |  |  |

| Compound | IC50 ([1]; Mus musculus, B16) | MTD [2] | ILSmax [6] | other results |
| --- | --- | --- | --- | --- |
| Fc1ccc(P(CCP(c2ccc(F)cc2)c2ccc(F)cc2)c2ccc(F)cc2)cc1 | > 100 µM | 17 µM/kg | 60 |  |
| c1ccc(P(CCP(c2ccccc2)c2ccccc2)CCP(c2ccccc2)c2ccccc2)cc1 | > 100 µM | 60 µM/kg | 80 |  |
| CSc1ccc(P(CCP(c2ccc(SC)cc2)c2ccc(SC)cc2)c2ccc(SC)cc2)cc1 |  | 55 µM/kg | 58 |  |
| FC(F)(F)c1ccc(P(CCP(c2ccc(C(F)(F)F)cc2)c2ccc(C(F)(F)F)cc2)c2ccc(C(F)(F)F)cc2)cc1 |  | 48 µM/kg | 38 |  |
| c1ccc(P(c2ccccc2)c2ccc(P(c3ccccc3)c3ccccc3)cc2)cc1 | > 100 µM | >600 µM/kg |  |  |
| C(=C/P(c1ccccc1)c1ccccc1)/P(c1ccccc1)c1ccccc1 | 25 µM | 61 µM/kg | 60 |  |
| c1ccc(P(CCCP(c2ccccc2)c2ccccc2)c2ccccc2)cc1 | 72 µM | 78 µM/kg | 75 |  |
| c1ccc(P(CCP(CCP(c2ccccc2)c2ccccc2)CCP(c2ccccc2)c2ccccc2)c2ccccc2)cc1 | 58 µM | 95 µM/kg | 35 |  |
| c1ccc(P(c2ccccc2)P(c2ccccc2)c2ccccc2)cc1 | > 100 µM | 320 µM/kg |  |  |
| c1ccc(CP(CCP(Cc2ccccc2)Cc2ccccc2)Cc2ccccc2)cc1 | > 100 µM | 44 µM/kg |  |  |
| CC(C(C)P(c1ccccc1)c1ccccc1)P(c1ccccc1)c1ccccc1 (stereo not given) | 50 µM | 113 µM/kg | 73 |  |
| c1coc(P(CCP(c2ccco2)c2ccco2)c2ccco2)c1 | > 100 µM | 180 µM/kg | 60 |  |
| Cc1cccc(P(CCP(c2cccc(C)c2)c2cccc(C)c2)c2cccc(C)c2)c1 | > 100 µM | 70 µM/kg |  |  |
| c1ccc(P(CCP(c2ccccn2)c2ccccn2)c2ccccn2)nc1 | > 100 µM | 60 µM/kg |  |  |
| c1ccc(P(CC[As](c2ccccc2)c2ccccc2)c2ccccc2)cc1 | 55 µM | 89 µM/kg |  |  |
| CCP(CC)CCP(CC)CC | > 100 µM | 310 µM/kg |  |  |
| C(#CP(c1ccccc1)c1ccccc1)P(c1ccccc1)c1ccccc1 | 23 µM | >300 µM/kg |  |  |
| COc1ccccc1P(CCP(c1ccccc1OC)c1ccccc1OC)c1ccccc1OC |  | 120 µM/kg |  |  |
| O=P(CCP(=O)(c1ccccc1)c1ccccc1)(c1ccccc1)c1ccccc1 | > 100 µM | 300 µM/kg |  |  |
